Reference: US20060069132A1, “Azolecarboxamide herbicides” (priority 2004, published 2006)

Legend:
[1] = system: rice; test: Test B pre-/postemergence herbicide test; type: in vivo, Oryza sativa; settings: preemergence
Summary of the method: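 Response was scored visually 13 to 15 days after treatment against untreated greenhouse controls, 0 meaning no effect and 100 complete control. Formulations (solvent mixture plus surfactant) went onto soil after planting, onto foliage of 1- to 4-leaf plants, and onto 2-leaf plants in a flooded paddy set including rice and barnyardgrass.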

[2] = system: large crabgrass; test: Test C pre-/postemergence herbicide test; type: in vivo, Digitaria sanguinalis
Summary of the method: (§1)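 Pre- and postemergence application, solvent/surfactant formulation; post at 1- to 4-leaf stage (2–18 cm). Greenhouse 12–14 d. Visual rating vs controls, 0 = no effect, 100 = complete control.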

[3] = system: redroot pigweed; test: Test A pre-/postemergence herbicide test; type: in vivo, Amaranthus retroflexus
Summary of the method: (§2)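 Visual injury rating on a 0–100 scale (0 no effect, 100 complete control) versus untreated controls, about ten days after treatment in greenhouse. Pre: directed soil spray onto seeded sandy loam. Post: spray to runoff on plants 2–10 cm tall at one- to two-leaf stage.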

[4] = system: large crabgrass; test: Test A pre-/postemergence herbicide test; type: in vivo, Digitaria sanguinalis
Summary of the method: as §2

[5] = system: common (oilseed) sunflower; test: Test C pre-/postemergence herbicide test; type: in vivo, Helianthus annuus
Summary of the method: as §1

[6] = system: velvetleaf; test: Test C pre-/postemergence herbicide test; type: in vivo, Abutilon theophrasti
Summary of the method: as §1

[7] = system: goosegrass; test: Test C pre-/postemergence herbicide test; type: in vivo, Eleusine indica
Summary of the method: as §1

[8] = system: pigweed; test: Test C pre-/postemergence herbicide test; type: in vivo, Amaranthus retroflexus
Summary of the method: as §1

[9] = 125 g ai/ha, 0 = no effect, 100 = complete control
[10] = 62 g ai/ha, preemergence, scale 0 to 100
[11] = 125 g ai/ha, scale 0 (no effect) to 100 (complete control), visual, 12 to 14 days, preemergence
[12] = 250 g ai/ha, scale 0-100, preemergence
[13] = 500 g ai/ha, scale 0 to 100 (0 no effect, 100 complete control), visual, 12 to 14 days, preemergence
[14] = Postemergence, 500 g ai/ha, scale 0 to 100
[15] = Postemergence, 250 g ai/ha, scale 0 to 100, 0 no effect, 100 complete control
[16] = postemergence, 125 g ai/ha, scale 0 to 100
[17] = postemergence, 62 g ai/ha, scale 0 to 100
[18] = Postemergence, 500 g ai/ha, 0 to 100 scale, 0 no effect, 100 complete control
[19] = Postemergence, 2000 g ai/ha, 0 to 100 scale, 0 no effect, 100 complete control
[20] = Preemergence, 2000 g ai/ha, visual rating, 0 to 100 scale (0 no effect, 100 complete control)
[21] = preemergence, 500 g ai/ha, visual injury, 0 to 100 scale (0 no effect, 100 complete control)
[22] = 250 g ai/ha, scale 0 to 100 (0 no effect, 100 complete control), visual, 12 to 14 days, preemergence
[23] = Preemergence, 500 g ai/ha, scale 0 to 100, 0 no effect, 100 complete control
[24] = Preemergence, 500 g ai/ha, visual rating, 0 to 100 scale (0 no effect, 100 complete control)
[25] = Preemergence, 2000 g ai/ha, 0 to 100 scale, 0 no effect, 100 complete control

SMILES: CCc1nc(C(C)(C)C)sc1C(=O)Nc1cccc(C(=O)NCC2CC2)c1 [Compound 212]
- Rice plant response rating (0 to 100 scale) [1, 9]: 10
- Plant response rating, Rice ([1]; 500 g ai/ha, visual rating 0-100, 0 no effect, 100 complete control): 20
- Plant response rating, Crabgrass, Large [2, 10]: 60
- Plant response rating, Crabgrass, Large [2, 11]: 80
- Plant response rating, Crabgrass, Large [2, 12]: 85
- Plant response rating, Crabgrass, Large [2, 13]: 100
- Crabgrass, Large plant response rating [2, 14]: 20
- Plant response rating, Crabgrass, Large [2, 15]: 20
- Plant response rating, Crabgrass, Large [2, 16]: 10
- Plant response rating, Crabgrass, Large [2, 17]: 0
- Pigweed plant response rating [3, 18]: 75
- Plant response rating, Pigweed [3, 19]: 90
- Pigweed plant response rating [3, 20]: 100
- Pigweed plant response rating [3, 21]: 100
- Crabgrass, Large plant response rating [4, 18]: 45
- Plant response rating, Crabgrass, Large [4, 19]: 60
- Crabgrass, Large plant response rating [4, 20]: 95
- Crabgrass, Large plant response rating [4, 21]: 90
- Plant response rating, Sunflower [5, 10]: 0
- Plant response rating, Sunflower [5, 11]: 0
- Plant response rating, Sunflower [5, 12]: 0
- Plant response rating, Sunflower [5, 13]: 0
- Plant response rating, Velvetleaf [6, 10]: 20
- Plant response rating, Velvetleaf [6, 11]: 100
- Plant response rating, Velvetleaf [6, 12]: 100
- Plant response rating, Velvetleaf [6, 13]: 100
- Velvetleaf plant response rating [6, 14]: 70
- Plant response rating, Velvetleaf [6, 15]: 50
- Plant response rating, Velvetleaf [6, 17]: 0
- Plant response rating, Goosegrass [7, 10]: 10
- Plant response rating, Goosegrass [7, 11]: 60
- Plant response rating, Goosegrass [7, 12]: 95
- Plant response rating, Goosegrass [7, 13]: 100
- Goosegrass plant response rating [7, 14]: 30
- Plant response rating, Goosegrass [7, 15]: 25
- Plant response rating, Goosegrass [7, 16]: 10
- Plant response rating, Goosegrass [7, 17]: 10
- Plant response rating, Pigweed [8, 10]: 100
- Plant response rating, Pigweed [8, 11]: 100
- Plant response rating, Pigweed [8, 12]: 100
- Plant response rating, Pigweed [8, 13]: 100
- Pigweed plant response rating [8, 14]: 90
- Plant response rating, Pigweed [8, 15]: 70
- Plant response rating, Pigweed [8, 17]: 50

SMILES: CCNC(=O)c1ccc(F)c(NC(=O)c2cc(C3(C)CC3)nn2CC)c1 [Compound 300]
- Rice plant response rating (0 to 100 scale) [1, 9]: 40
- Plant response rating, Rice ([1]; 500 g ai/ha, visual rating, 0 = no effect, 100 = complete control): 70
- Plant response rating, Crabgrass, Large [2, 10]: 100
- Plant response rating, Crabgrass, Large [2, 11]: 100
- Plant response rating, Crabgrass, Large [2, 12]: 100
- Pigweed plant response rating [3, 18]: 90
- Plant response rating, Pigweed [3, 19]: 100
- Pigweed plant response rating [3, 20]: 100
- Pigweed plant response rating [3, 21]: 95
- Crabgrass, Large plant response rating [4, 18]: 55
- Plant response rating, Crabgrass, Large [4, 19]: 90
- Crabgrass, Large plant response rating [4, 20]: 100
- Crabgrass, Large plant response rating [4, 21]: 90
- Plant response rating, Sunflower [5, 10]: 0
- Plant response rating, Sunflower [5, 12]: 5
- Plant response rating, Velvetleaf [6, 10]: 5
- Plant response rating, Velvetleaf [6, 12]: 5
- Plant response rating, Goosegrass [7, 10]: 85
- Plant response rating, Goosegrass [7, 11]: 100
- Plant response rating, Goosegrass [7, 12]: 100
- Plant response rating, Pigweed [8, 10]: 100
- Plant response rating, Pigweed [8, 11]: 100
- Plant response rating, Pigweed [8, 12]: 100

SMILES: CCn1nc(C(C)(C)C)cc1C(=O)Nc1cccc(C(=O)NCC(C)C)c1 [Compound 61]
- Plant response rating, Rice ([1]; 125 g ai/ha, 0 to 100 scale, 0 is no effect, 100 is complete control): 0
- Plant response rating (0 = no effect, 100 = complete control), Crabgrass, Large ([2]; 62 g ai/ha, preemergence): 50
- Plant response rating, Crabgrass, Large [2, 11]: 75
- Plant response rating, Crabgrass, Large [2, 22]: 100
- Crabgrass, Large plant response rating [2, 23]: 100
- Plant response rating, Pigweed [3, 18]: 85
- Plant response rating, Pigweed [3, 19]: 95
- Pigweed plant response rating [3, 24]: 95
- Pigweed plant response rating [3, 25]: 65
- Plant response rating, Crabgrass, Large [4, 18]: 30
- Plant response rating, Crabgrass, Large [4, 19]: 45
- Crabgrass, Large plant response rating [4, 24]: 75
- Crabgrass, Large plant response rating [4, 25]: 90
- Plant response rating (0 = no effect, 100 = complete control), Sunflower ([5]; 62 g ai/ha, preemergence): 0
- Plant response rating, Sunflower [5, 11]: 0
- Plant response rating, Sunflower [5, 22]: 0
- Sunflower plant response rating [5, 23]: 0
- Plant response rating, Velvetleaf [6, 11]: 45
- Plant response rating, Velvetleaf [6, 22]: 80
- Velvetleaf plant response rating [6, 23]: 100
- Plant response rating (0 = no effect, 100 = complete control), Goosegrass ([7]; 62 g ai/ha, preemergence): 0
- Plant response rating, Goosegrass [7, 11]: 40
- Plant response rating, Goosegrass [7, 22]: 70
- Goosegrass plant response rating [7, 23]: 95
- Plant response rating (0 = no effect, 100 = complete control), Pigweed ([8]; 62 g ai/ha, preemergence): 0
- Plant response rating, Pigweed [8, 11]: 95
- Plant response rating, Pigweed [8, 22]: 95
- Pigweed plant response rating [8, 23]: 95
